Test results published in patent US8703812B2, “Protein synthesis required for long-term memory is induced by PKC activation on days preceding associative learning” (Blanchette Rockefeller Neurosciences Institute, priority 2005, dated 2014).
“Also recorded” adds a separate entry of the source.

How the values were obtained:
Hermissenda Crassicornis = experiment: Pavlovian conditioning of Hermissenda (retention of conditioned response); type: in vivo; conditions: for concentration that inhibited acquisition and behavioral retention: all training conditions tested
Method: Bryostatin exposure—Specimens of Hermissenda Crassicornis were maintained in artificial sea water (ASW) at 15° for three days in perforated 50-ml conical centrifuge tubes before starting experiments. Bryostatin, purified from the marine bryozoan Bugula neritina, was dissolved in EtOH and diluted to its final concentration in ASW. […] For selected experiments lactacysteine (10 μM) or anisomycin was added to the ASW.
Bryostatin effects on Hermissenda behavior and biochemistry were produced by adding the drug to the bathing medium within an 8 cm long, 1 cm diameter test tube housing each individual animal.
Pavlovian conditioning of Hermissenda involves repeated pairings of a neutral stimulus, light, with an unconditioned stimulus, orbital shaking. (See, Lederhendler et al. (24) and Epstein et al. (6)). A rotation/shaking stimulus excites the statocyst hair cells and thereby elicits an unconditioned response: a brisk contraction of the muscular undersurface called a foot, accompanied by adherence or “clinging” to the surface that supports the foot. Before conditioning, light elicits a weakly positive phototaxis accompanied by lengthening of the foot. After sufficient light-rotation pairings, light no longer elicits phototaxis, but instead elicits a new response (24): the “clinging” and foot shortening previously elicited only by the unconditional stimulus (FIG. 1). Thus, the meaning of the unconditioned stimulus, rotation or orbital shaking, has been transferred to the conditioned stimulus and is manifested by a light-elicited foot contraction—a negative change of foot length. This conditioned response to light can last for weeks, is not produced by randomized light and rotation, is stimulus-specific, and shares the other defining characteristics of mammalian Pavlovian Conditioning.
Pavlovian conditioning of Hermissenda has well-defined training parameters that produce progressively longer-lasting retention of the learned conditioned response. Two training events (2 TE) of paired light and orbital shaking (see “Methods”), for example, induce a learned conditioned response (light-elicited foot contraction or shortening) that persists without drug treatment for approximately 7 minutes. Four to six training events (4-6 TE) induce a conditioned response that persists up to several hours, but disappears approximately by 1 day after training. Nine TE produces long-term associative memory lasting many days and often up to two weeks.

PKC [1] = experiment: Protein kinase C assay (histone phosphorylation) in Hermissenda nervous systems; type: in vivo
Method: Bryostatin exposure—Specimens of Hermissenda Crassicornis were maintained in artificial sea water (ASW) at 15° for three days in perforated 50-ml conical centrifuge tubes before starting experiments. Bryostatin, purified from the marine bryozoan Bugula neritina, was dissolved in EtOH and diluted to its final concentration in ASW. Animals were incubated with bryostatin in ASW for 4 hr, then rinsed with normal ASW. For selected experiments lactacysteine (10 μM) or anisomycin was added to the ASW.
(§1) Cells were homogenized by sonication (5 sec, 25 W) in 100 μl of 10 mM Tris-HCl pH 7.4 buffer containing 1 mM EGTA, 1 mM PMSF, and 50 mM NaF. Homogenate was transferred to a polyallomer centrifuge tube and was centrifuged at 100,000×g for 10 min at 4°. The supernatant was removed and immediately frozen on dry ice. The particulate fraction was resuspended by sonication in 100 μl of the same buffer and stored at −80°. To measure PKC, 10 μl of cytosol or particulate fraction was incubated for 15 min at 37° in the presence of 10 μM histones, 4.89 mM CaCl2, 1.2 μg/μl phosphatidyl-L-serine, 0.18 μg/μl 1,2-dioctanoyl-sn-glycerol, 10 mM MgCl2, 20 mM HEPES (pH 7.4), 0-8 mM EDTA, 4 mM EGTA, 4% glycerol, 8 μg/ml aprotinin, 8 μg/ml leupeptin, and 2 mM benzamidine. 0.5 μCi [γ^32P]ATP was added and ^32P-phosphoprotein formation was measured by adsorption onto phosphocellulose as described previously (25). This assay was used with slight adjustments for either Hermissenda nervous system homogenates or cultured mammalian neuron homogenates
Intact Hermissenda were exposed for 4 hour intervals to bryostatin (0.28 nM) on successive days under conditions described (“Behavioral Pharmacology”). Histone phosphorylation (See “Methods”) in isolated circumesophageal nervous systems was then measured in the cytosol fraction. […] (FIG. 12, 13). […] After an initial activation (via translocation), this bryostatin effect is most likely due to increased synthesis of PKC, consistent with the increased levels of calexcitin induced by bryostatin, but not directly correlated with repeated bryostatin exposure.

PKC [2] = experiment: Protein kinase C assay in cultured hippocampal neurons; type: cell-based, Rat
Method: as §1
Rat hippocampal H19-7/IGF-IR cells (ATCC) were plated onto poly-L-lysine coated plates and grown at 35° in DMEM/10% FCS for several days until approx. 50% coverage was obtained. The cells were then induced to differentiate into a neuronal phenotype by replacing the medium with 5 ml N2 medium containing 10 ng/ml basic fibroblast growth factor and grown in T-25 flasks at 39° C. (26). Various concentrations of bryostatin (0.01-1.0 nM) were then added in 10 μl aqueous solution. After a specified interval, the medium was removed and the cells were washed with PBS, removed by gentle scraping, and collected by centrifugation at 1000 rpm for 5 min.
To further examine biochemical consequences of repeated exposures to bryostatin, rat hippocampal neurons were studied after they had been immortalized by retroviral transduction of temperature sensitive tsA5CSV40 large T antigen (25). These differentiate to have a neuronal phenotype when induced by basic fibroblast growth factor in N2 medium (26) and express a normal complement of neuronal proteins, including PKC.

[3] = single bryostatin 0.28 nM for 30 minutes

## CCC/C=C/C=C/C(=O)O[C@H]1/C(=C/C(=O)OC)C[C@H]2C[C@H]([C@@H](C)O)OC(=O)C[C@H](O)C[C@@H]3C[C@H](OC(C)=O)C(C)(C)[C@](O)(C[C@@H]4C/C(=C/C(=O)OC)C[C@H](/C=C/C(C)(C)[C@]1(O)O2)O4)O3 [bryostatin, bryostatin-1]
Hermissenda Crassicornis; 2-TEs with two bryostatin exposures
  retention: more than one week
Hermissenda Crassicornis; 2-paired TEs, bryostatin 0.25 ng/ml from 10-min dark adaptation and 4 h thereafter
  retention of behavioral conditioning tested after 4 h: demonstrated retention of the behavioral conditioning
Hermissenda Crassicornis; 2 TE plus bryostatin, 4 hours during and after training
  memory retention: lasting hours; also recorded: several hours
Hermissenda Crassicornis; 4 TEs plus bryostatin
  memory retention: > 24 h
Hermissenda Crassicornis; 6 TE with bryostatin (only hours without)
  memory duration: many days
Hermissenda Crassicornis; 4 hour bryostatin on the day preceding training and on the day of 2 TE
  memory retention: more than one day
Hermissenda Crassicornis; 20 h pre-exposure to bryostatin 0.25 ng/ml, 4-paired TE
  retention: persisted
Hermissenda Crassicornis; 20 hr bryostatin 0.25 ng/ml exposure, 2-paired TE
  retention: ≤ 48 h
Hermissenda Crassicornis; after 2, 4, or 6 training trials
  low doses that markedly enhanced memory: 0.1 to 0.25 ng/mL
Hermissenda Crassicornis
  concentration that inhibited acquisition and behavioral retention: greater than 1.0 ng/ml
Hermissenda Crassicornis; listed as Bryostatin
  concentration that inhibited acquisition and behavioral retention: ≥ 1.0 ng/mL
Hermissenda Crassicornis; bryostatin 0.25 ng/ml before 6-TE conditioning and 4 hours thereafter
  conditioned response (foot contraction) tested at 4 h: produced a positive CR
Hermissenda Crassicornis; bryostatin <0.50 ng/ml, 9-paired TEs
  effect on retention performance: no demonstrable effects on retention performance
Hermissenda Crassicornis; bryostatin exposure for 8 to 20 hours followed by 2 TE
  memory retention versus 4 hour exposures: not sufficient
Hermissenda Crassicornis; bryostatin only 4 h, 2-paired TEs 24 hrs later
  behavioral retention lost after: ≤ 24 h
Hermissenda Crassicornis; randomized presentations of light and rotation, with bryostatin
  conditioned response: produced no conditioned response
Hermissenda Crassicornis; sub-optimal 4- and 6-paired TEs, bryostatin 0.25 ng/ml from dark adaptation and for 4 hours
  long-term retention (tested with CS alone at 4 h, then 24-h intervals): all demonstrated long-term retention
Hermissenda Crassicornis; sub-optimal (4 TE) training
  concentrations that augment acquisition and memory retention: < 0.50 ng/mL
Hermissenda Crassicornis; three successive days of 4-h bryostatin 0.25 ng/ml, one day later 2-TEs
  long-term retention (LTR) post-training: ≥ 96 h
Hermissenda Crassicornis; two successive days of 4-h bryostatin 0.25 ng/ml, 2-paired TEs
  long-term retention: at least 6 days
PKC [1]; 24 hours after the second of two bryostatin exposures
  PKC activity, membrane fraction: significantly increased over baseline
PKC [1]; bryostatin 0.28 nM 4 hour on successive days, 10 minutes and 24 hours after second of two exposures
  PKC activity, cytosol fraction: significantly increased over baseline levels
PKC [2]; first 4 hours after single bryostatin exposure
  cytosolic PKC activity: no significant alteration; also recorded: not altered
PKC [2]; second 30-minute exposure after 2- to 4-hour delay
  effect of second exposure on downregulation of membrane-bound PKC: eliminated the significant downregulation; also recorded: significantly attenuates the downregulation
PKC [2]; second bryostatin exposure delayed until 4 hours after the first
  cytosolic PKC activity: increased above baseline
PKC [2]; second bryostatin exposure within 2 hr of the first
  cytosolic PKC activity: significant reduction of PKC activity
PKC [2]; [3]
  membrane-bound PKC after brief translocation: prolonged downregulation
  translocation of PKC from cytosol to particulate fraction: approx 60%
